We go through 21 compounds from patent publication USRE47689E1, “Compounds for treating spinal muscular atrophy” (PTC Therapeutics, Inc., priority 2011, dated 2019).

Where two headings read alike, the source gives them in different places.

In general, melting point refers to the temperature, or range, at which the solid turns liquid.

The subject of data set [1] is SMN2 minigene (full length SMN2 minigene mRNA containing SMN2 exon 7). Kind of data set: SMN2 minigene mRNA splicing RT-qPCR assay in cultured cells. Type of data set: cell-based, human. The settings on record: for EC (1.5-fold): Homo sapiens, HEK293-H, read-out: EC1.5x for production of full length SMN2 mRNA. In short, it runs like this:
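Lysates → one-step RT-qPCR, minigene-specific primers (0.4 μM final) + GAPDH multiplex, 40 cycles. FL/GAPDH vs DMSO; EC1.5x, star-binned.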
Background: In qPCR the cycle at which signal appears reflects the starting amount.

Data set [2] has as its system Smn protein. In words: Smn protein assay in cultured cells (SMN HTRF). Type of data set: cell-based, human. Particulars: 48 hours; for maximum fold (Fold) increase of Smn protein: SMA patient fibroblast cells, 7-point concentration data, fold increase relative to vehicle control (SMN HTRF); for EC1.5x (concentration giving 1.5-fold Smn protein increase): SMA Type 1 patient fibroblast cells (GM03813), 7-point concentration curve, SMN HTRF, concentration producing 1.5 times Smn protein vs DMSO vehicle control, read-out: EC1.5x for Smn protein expression. The gist of the method: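 Smn in SMA fibroblast lysates, measured by anti-SMN HTRF after 48 h compound exposure; EC1.5x from fold change over vehicle.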

The mark [3] stands for this setting: HEK293H cells stably transfected with SMN2-A minigene, 24 hours, 7-point concentration curve, 1.5-fold relative to vehicle-treated cells.

As for `Cc1ccc2nc(-c3cc4ccc(CN5CCC(O)C5)cc4oc3=O)cn2c1` (centres unmarked) [Compound 253, 7-[(3-hydroxypyrrolidin-1-yl)methyl]-3-(6-methylimidazo[1,2-a]pyridin-2-yl)-2H-chromen-2-one], the melting point was 227 to 230 °C. Besides, the EC (1.5-fold) in data set [1] (setting [3]) was 1 to 3 µM. Besides, the “maximum fold (Fold) increase of Smn protein” value (“maximum fold (Fold) increase” for short) in data set [2] is listed as “* (maximum fold increase of ≤1.2)”.

With `COc1ccc(-c2cc3c(F)cc(N4CCN[C@H](C)C4)cc3oc2=O)cc1OC` [Compound 416, 3-(3,4-dimethoxyphenyl)-5-fluoro-7-[(3R)-3-methylpiperazin-1-yl]-2H-chromen-2-one], the melting point was in the range of 115 to 117 °C. For the same compound, the EC (1.5-fold) in data set [1] (setting [3]) is 1 to 3 µM. Moreover, the “maximum fold (Fold) increase” value in data set [2] is “** (fold increase between >1.2 and ≤1.35)”.

As for `Cc1nccc(-c2cc3ccc(N4CCNCC4)cc3oc2=O)n1.Cl` [Cpd 274, 3-(2-methylpyrimidin-4-yl)-7-(piperazin-1-yl)-2H-chromen-2-one hydrochloride], the melting point was 200 °C (dec.). Moreover, the EC (1.5-fold) in data set [1] (24 h) lay within 1 to 3 µM. The “maximum fold (Fold) increase” value in data set [2] is “** (fold increase between >1.2 and ≤1.35)”.

As to `COc1cccn2cc(-c3cc4ccc(N5CCNCC5)cc4oc3=O)nc12` [Compound 402, 3-(8-methoxyimidazo[1,2-a]pyridin-2-yl)-7-(piperazin-1-yl)-2H-chromen-2-one], the melting point is 236 to 240 °C. Also, the EC (1.5-fold) in data set [1] (setting [3]) was in the range of 3 to 30 µM. Further, the “maximum fold (Fold) increase” value in data set [2] is “* (maximum fold increase of ≤1.2)”.

Compound `CCc1cc(C)cn2cc(-c3cc4ccc(N5CCCN(C)CC5)cc4oc3=O)nc12` [Compound 332, 3-(8-ethyl-6-methylimidazo[1,2-a]pyridin-2-yl)-7-(4-methyl-1,4-diazepan-1-yl)-2H-chromen-2-one] had a melting point of 172 to 176 °C. Besides, in data set [1] (setting [3]), the EC (1.5-fold) was 0.3 to 1 µM. Also, in data set [2], the “maximum fold (Fold) increase” value is on record as “* (maximum fold increase of ≤1.2)”.

For `Cc1ccn2cc(-c3cc4c(F)cc(N5CCNCC5)cc4oc3=O)nc2c1` [Compound 424, 5-fluoro-3-(7-methylimidazo[1,2-a]pyridin-2-yl)-7-(piperazin-1-yl)-2H-chromen-2-one], the melting point was 268 to 278 °C. Besides, the EC (1.5-fold) in data set [1] (setting [3]) was in the range of 0.1 to 0.3 µM. Further, in data set [2], the EC1.5x (concentration giving 1.5-fold Smn protein increase) was under 300 nM; the “maximum fold (Fold) increase” value was “*** (fold increase between >1.35 and ≤1.5)”.

`Cc1cn2cc(-c3cc4ccc(N5CCN(C)CC5)cc4oc3=O)cc2c(C)n1` [Compound 644, 3-(1,3-dimethylpyrrolo[1,2-a]pyrazin-7-yl)-7-(4-methylpiperazin-1-yl)-2H-chromen-2-one]: the melting point is 127 to 131 °C. The EC (1.5-fold) in data set [1] (setting [3]) is under 0.1 µM. Besides, in data set [2], the EC1.5x (concentration giving 1.5-fold Smn protein increase) is under 300 nM and the “maximum fold (Fold) increase” value is given as “***** (fold increase >1.65)”.

In turn, `CCN1CCN(c2ccc3cc(-c4cn5cccnc5n4)c(=O)oc3c2)CC1` [Compound 108, 7-(4-ethylpiperazin-1-yl)-3-(imidazo[1,2-a]pyrimidin-2-yl)-2H-chromen-2-one] had a melting point of 300 to 302 °C. Moreover, the EC (1.5-fold) in data set [1] (setting [3]) lay within 1 to 3 µM. In data set [2], the EC1.5x (concentration giving 1.5-fold Smn protein increase) is 300 to 1000 nM; the “maximum fold (Fold) increase” value is “**** (fold increase between >1.5 and ≤1.65)”.

In turn, `Cc1cn2cc(-c3cc4ccc(O[C@@H]5CCN(C(C)C)C5)cc4oc3=O)nc2c(C)n1` [Compound 891, 3-(6,8-dimethylimidazo[1,2-a]pyrazin-2-yl)-7-{[(3R)-1-(propan-2-yl)pyrrolidin-3-yl]oxy}-2H-chromen-2-one] had a melting point of 176 to 179 °C. In data set [1] (setting [3]), the EC (1.5-fold) was 0.1 to 0.3 µM. For the same compound, in data set [2], the EC1.5x (concentration giving 1.5-fold Smn protein increase) is 300 to 1000 nM and the “maximum fold (Fold) increase” value was “***** (fold increase >1.65)”.

Turning to `Cc1cn2cc(-c3cc4ccc(N5C[C@H]6CCCN[C@H]6C5)cc4oc3=O)nc2c(C)n1` [Compound 781, 3-(6,8-dimethylimidazo[1,2-a]pyrazin-2-yl)-7-[(4aR,7aR)-octahydro-6H-pyrrolo[3,4-b]pyridin-6-yl]-2H-chromen-2-one], the melting point lay in the range of 246 to 252 °C. In addition, in data set [1] (setting [3]), the “EC1.5x for production of full length SMN2 mRNA” value was “***** (EC1.5x≤0.1 μM)”. Also, the “maximum fold (Fold) increase” value in data set [2] was “** (fold increase between >1.2 and ≤1.35)”.

In turn, `C[C@@H]1CN(c2ccc3cc(-c4cn5ccsc5n4)c(=O)oc3c2)CCN1` [Compound 204, 3-(imidazo[2,1-b][1,3]thiazol-6-yl)-7-[(3R)-3-methylpiperazin-1-yl]-2H-chromen-2-one] registered a melting point of 233 to 237 °C. In addition, in data set [1] (setting [3]), the EC (1.5-fold) lay in the range of 0.1 to 0.3 µM. The “maximum fold (Fold) increase” value in data set [2] was “*** (fold increase between >1.35 and ≤1.5)”.

Regarding `Cc1cn2cc(-c3cc4ccc(N5CC[C@@H](N(C)C)C5)cc4oc3=O)cc2cn1` [Compound 693, 7-[(3R)-3-(dimethylamino)pyrrolidin-1-yl]-3-(3-methylpyrrolo[1,2-a]pyrazin-7-yl)-2H-chromen-2-one], the melting point lay in the range of 206 to 208 °C. Also, the EC (1.5-fold) in data set [1] (setting [3]) was under 0.1 µM. Further, in data set [2], the EC1.5x (concentration giving 1.5-fold Smn protein increase) lay within 300 to 1000 nM; the “maximum fold (Fold) increase” value was “**** (fold increase between >1.5 and ≤1.65)”.

The compound `CCN1CCC(c2ccc3cc(-c4ccc5nc(C)cn5c4)c(=O)oc3c2)CC1` [Compound 827, 7-(1-ethylpiperidin-4-yl)-3-(2-methylimidazo[1,2-a]pyridin-6-yl)-2H-chromen-2-one] showed a melting point of 268 to 270 °C. In addition, the EC (1.5-fold) in data set [1] (setting [3]) is under 0.1 µM. Moreover, in data set [2], the EC1.5x (concentration giving 1.5-fold Smn protein increase) was under 300 nM and the “maximum fold (Fold) increase” value was “***** (fold increase >1.65)”.

Consider `C[C@H]1CN(c2ccc3cc(-c4ccncc4)c(=O)oc3c2)CCN1` [Compound 549, 7-[(3S)-3-methylpiperazin-1-yl]-3-(pyridin-4-yl)-2H-chromen-2-one], for which the melting point lay within 210 to 213 °C. Besides, the EC (1.5-fold) in data set [1] (24 h) lay within 1 to 3 µM. Further, the “maximum fold (Fold) increase” value in data set [2] is “** (fold increase between >1.2 and ≤1.35)”.

`CCc1cc(-c2cc3ccc(CCCN(C)C)cc3oc2=O)cn2cc(C)nc12` [Compound 910, 7-[3-(dimethylamino)propyl]-3-(8-ethyl-2-methylimidazo[1,2-a]pyridin-6-yl)-2H-chromen-2-one] returned a melting point of 123 to 126 °C. Moreover, the EC (1.5-fold) in data set [1] (setting [3]) is under 0.1 µM. Moreover, in data set [2], the EC1.5x (concentration giving 1.5-fold Smn protein increase) is under 300 nM and the “maximum fold (Fold) increase” value is on record as “***** (fold increase >1.65)”.

For the compound `Cc1nc2ccc(-c3cc4ccc(N5CCNCC5)cc4oc3=O)cc2o1` [Compound 695, 3-(2-methyl-1,3-benzoxazol-6-yl)-7-(piperazin-1-yl)-2H-chromen-2-one], the melting point lay in the range of 200 to 205 °C. Moreover, the EC (1.5-fold) in data set [1] (setting [3]) was under 0.1 µM. Besides, in data set [2], the “maximum fold (Fold) increase” value was “*** (fold increase between >1.35 and ≤1.5)”.

`O=c1oc2cc(N3CCNCC3)ccc2cc1-c1noc(-c2ccccc2)n1` [Cpd 50, 3-(5-phenyl-1,2,4-oxadiazol-3-yl)-7-(piperazin-1-yl)-2H-chromen-2-one]: the melting point fell in the range of 214 to 221 °C. The EC (1.5-fold) in data set [1] (setting [3]) is 1 to 3 µM. The “maximum fold (Fold) increase” value in data set [2] was “* (maximum fold increase of ≤1.2)”.

For the compound `COc1cc(-c2cc3ccc(N4CCNCC4)cc3oc2=O)ccc1C` [Compound 574, 3-(3-methoxy-4-methylphenyl)-7-(piperazin-1-yl)-2H-chromen-2-one], the melting point was in the range of 170 to 174 °C. Further, the EC (1.5-fold) in data set [1] (setting [3]) is 1 to 3 µM. The “maximum fold (Fold) increase” value in data set [2] is given as “* (maximum fold increase of ≤1.2)”.

`CC(C)NCc1ccc2cc(-c3nc4c(Cl)cccc4s3)c(=O)oc2c1` [Compound 10, 3-(4-chloro-1,3-benzothiazol-2-yl)-7-[(propan-2-ylamino)methyl]-2H-chromen-2-one] showed a melting point of 157 to 161 °C. For the same compound, the EC (1.5-fold) in data set [1] (setting [3]) is 0.3 to 1 µM. The “maximum fold (Fold) increase” value in data set [2] is given as “* (maximum fold increase of ≤1.2)”.

Turning to `CCN1CCCN(c2ccc3cc(-c4cc5c(C)nc(C)cn5c4)c(=O)oc3c2)CC1` [Compound 671, 3-(1,3-dimethylpyrrolo[1,2-a]pyrazin-7-yl)-7-(4-ethyl-1,4-diazepan-1-yl)-2H-chromen-2-one], the melting point lay in the range of 166 to 169 °C. The EC (1.5-fold) in data set [1] (setting [3]) was under 0.1 µM. In data set [2], the EC1.5x (concentration giving 1.5-fold Smn protein increase) is under 300 nM and the “maximum fold (Fold) increase” value is “***** (fold increase >1.65)”.

`Cc1ccc2nc(-c3cc4ccc(N(C)C5CCN(C)CC5)cc4oc3=O)cn2c1` [Compound 282, 3-(6-methylimidazo[1,2-a]pyridin-2-yl)-7-[methyl(1-methylpiperidin-4-yl)amino]-2H-chromen-2-one]: the melting point is 181 to 184 °C. In data set [1] (24 h), the EC (1.5-fold) lay within 1 to 3 µM. Moreover, the “maximum fold (Fold) increase” value in data set [2] is listed as “* (maximum fold increase of ≤1.2)”.
